A short description of this data set: log P determination by HPLC on reversed-phase column (C 18), EEC Directive 79/831 Annex V.A8. It counts as physicochemical. The procedure: Temperature: 40° C.; Mobile phases: 0.1% aqueous formic acid and acetonitrile; linear gradient from 10% acetonitrile to 90% acetonitrile.
Calibration was carried out using unbranched alkan-2-ones (comprising 3 to 16 carbon atoms) with known log P values (determination of the log P values by the retention times using linear interpolation between two successive alkanones).

Setting [1] is: HPLC, C 18, 40° C., 0.1% aqueous formic acid and acetonitrile gradient.
Where [2] appears, read: HPLC on reversed-phase column (C 18).

A word on the LogP: it is a log measure of how a compound divides between an organic and an aqueous phase. Read a high LogP as a more lipophilic compound. Molecule `Cc1occc1C(=O)N(Cc1c(Cl)cc(Cl)cc1Cl)C1CC1` [Compound 13] returned a LogP under setting [1] of 4.09. Molecule `Cn1cc(C(=O)N(Cc2ccc(C(F)(F)F)cc2)C2CC2)c(C(F)(F)F)n1` [Compound 260] displayed a LogP under setting [2] of 3.29. Molecule `Cn1cc(C(=O)N(Cc2c(Cl)cc(Cl)cc2Cl)C2CC2)c(I)n1` [Compound 258] came in with a LogP under setting [2] of 3.34. This LogP and that of the molecule before are within 0.2 log units of each other. Molecule `Cn1cc(C(=O)N(Cc2c(Cl)cc(Cl)cc2Cl)C2CC2)c(C(F)(F)F)n1` [Compound 256] yielded a LogP under setting [2] of 3.78. Regarding `Cn1cc(C(=O)N(Cc2ccc(Cl)cc2Cl)C2CC2)c(C(F)(F)F)n1` [Compound 252], the LogP under setting [2] is 3.58. In the case of `Cn1cc(C(=O)N(Cc2ccc(Cl)cc2Cl)C2CC2)c(I)n1` [Compound 254], the LogP under setting [2] came out at 3.15. For `Cn1cc(C(=O)N(Cc2c(Cl)cc(Cl)cc2Cl)C2CC2)c(C(F)(F)F)c1` [Compound 99], the LogP under setting [1] is listed as 4.08. `CCOc1nn(C)cc1C(=O)N(Cc1ccc(Cl)cc1Cl)C1CC1` [Compound 253] came in with a LogP under setting [2] of 3.22. Regarding `Cc1nc(C(F)F)c(C(=O)N(Cc2ccc(C(F)(F)F)cc2)C2CC2)s1` [Compound 172], the log partition coefficient (LogP) under setting [2] is reported as 3.37. Turning to `O=C(c1sccc1I)N(Cc1ccc(Cl)cc1Cl)C1CC1` [Compound 58], the LogP under setting [1] came to 4.48.

As to `Cc1nc(C(F)F)c(C(=O)N(C2CC2)C(C#N)c2ccc(Cl)cc2Cl)s1` (stereo not drawn) [Compound 209], the LogP under setting [2] was determined as 3.61. `Cc1occc1C(=O)N(Cc1ccc(Cl)cc1Cl)C1CC1` [Compound 11] had a LogP under setting [1] of 3.77. `Cc1nc(C(F)(F)F)c(C(=O)N(Cc2c(Cl)cc(Cl)cc2Cl)C2CC2)s1` [Compound 170] had a LogP under setting [2] of 4.52.

`COC(c1ccc(Cl)cc1Cl)N(C(=O)c1c(C)nn(C)c1F)C1CC1` (stereo not drawn) [Compound 500] had a LogP under setting [2] of 2.96. As usually defined, the chromatographic logP is a lipophilicity value derived from retention on a column. Higher therefore signals a more lipophilic compound. In turn, `Cc1nn(C)c(F)c1C(=O)N(Cc1ccc(C(F)(F)F)cc1)C1CC1` [Compound 237, N-(4-trifluoromethyl-benzyl)-N-cyclopropyl-5-fluoro-1,3-dimethyl-1H-pyrazole-4-carboxamide] came in with a LogP under setting [2] of 2.8. Moreover, for the setting “reversed-phase HPLC column (C 18), HPLC, C 18, 40° C., 0.1% aqueous formic acid and acetonitrile gradient”, the chromatographic logP was found to be 2.8. On to `Cc1nc(C(F)F)c(C(=O)N(Cc2c(Cl)cc(Cl)cc2Cl)C2CC2)s1` [Compound 171], for which the LogP under setting [2] came out at 4.1.

The molecule `Cc1nn(C)c(F)c1C(=O)N(Cc1ccc(Cl)cc1Cl)C1CC1` [Compound 236] registered a LogP under setting [2] of 3.04. The same measure, in the same setting: next, `Cc1nn(C)c(F)c1C(=O)N(Cc1c(Cl)cc(Cl)cc1Cl)C1CC1` [Compound 238]: 3.32; `Cn1cc(C(=O)N(Cc2c(Cl)cc(Cl)cc2Cl)C2CC2)c(C(F)F)n1` [Compound 243]: 3.46. Same read-out and setting: next, `CC(c1ccc(Cl)cc1Cl)N(C(=O)c1cn(C)nc1I)C1CC1` (stereo not drawn) [Compound 266]: 3.22. For `Cc1cc(C(=O)N(Cc2c(Cl)cc(Cl)cc2Cl)C2CC2)c(C(F)(F)F)o1` [Compound 14], under setting [1], the LogP came out at 4.91. `CCC(c1ccc(Cl)cc1Cl)N(C(=O)c1c(C)nn(C)c1F)C1CC1` (stereo not drawn) [Compound 386] displayed a LogP under setting [2] of 3.53. For the molecule `CCOc1nn(C)cc1C(=O)N(C1CC1)C(C)c1ccc(Cl)cc1Cl` (stereo not drawn) [Compound 265], the LogP under setting [2] is given as 3.19. Under setting [2], `CC(c1ccc(C(F)(F)F)cc1)N(C(=O)c1cn(C)nc1C(F)F)C1CC1` (stereo not drawn) [Compound 246] had a LogP of 3.27.

Consider `Cn1cc(C(=O)N(Cc2ccc(Cl)cc2Cl)C2CC2)c(C(F)(F)F)c1` [Compound 98], for which, under setting [1], the LogP is given as 3.88. `CC(c1ccc(Cl)cc1Cl)N(C(=O)c1cn(C)nc1C(F)F)C1CC1` (stereo not drawn) [Compound 245] showed a LogP under setting [2] of 3.31. `Cn1cc(C(=O)N(Cc2ccc(Cl)cc2Cl)C2CC2)c(C(F)F)n1` [Compound 241] had a LogP under setting [2] of 3.27. The LogP values of the last two molecules are within 0.2 log units of each other. With `Cc1nc(C(F)(F)F)c(C(=O)N(Cc2ccc(Cl)cc2Cl)C2CC2)s1` [Compound 168], the LogP under setting [2] is 4.19. Consider `CCn1nc(C)c(Br)c1C(=O)N(Cc1c(Cl)cc(Cl)cc1Cl)C1CC1` [Compound 541], for which the LogP under setting [2] is on record as 2.4. Consider `Cc1nn(C)c(F)c1C(=O)N(Cc1ccc(Br)cc1)C1CC1` [Compound 422], for which the LogP under setting [2] came out at 2.67. `Cc1nn(C)c(F)c1C(=O)N(C1CC1)C(C#N)c1ccc(Cl)cc1Cl` (stereo not drawn) [Compound 385]: the LogP under setting [2] worked out at 3.15. With `Cn1cc(C(=O)N(Cc2ccc(C(F)(F)F)cc2)C2CC2)c(C(F)F)n1` [Compound 242], under setting [2], the LogP is recorded as 2.98. The LogP values of the last two molecules are within 0.2 log units of each other. For `Cn1cc(C(=O)N(Cc2ccc(C(F)(F)F)cc2)C2CC2)c(C(F)(F)F)c1` [Compound 100], under setting [1], the LogP is reported as 3.55. As to `Cn1cc(C(=O)N(Cc2ccc(Oc3ccccc3)cc2)C2CC2)c(C(F)F)n1` [Compound 244], the LogP under setting [2] was 3.37. Regarding `O=C(c1sccc1I)N(Cc1c(Cl)cc(Cl)cc1Cl)C1CC1` [Compound 59], the lipophilicity (LogP) under setting [1] was 4.86. `Cc1occc1C(=O)N(Cc1ccc(C(F)(F)F)cc1)C1CC1` [Compound 15]: under setting [1], the LogP is listed as 3.43.

Regarding `Cc1nc(C(F)F)c(C(=O)N(C2CC2)C(C)c2ccc(Cl)cc2Cl)s1` (stereo not drawn) [Compound 173], the LogP under setting [2] is given as 3.9.

As for `COC(=O)C(c1ccccc1Cl)N(C(=O)c1c(C)nn(C)c1F)C1CC1` (stereo not drawn) [Compound 383], the LogP under setting [2] is reported as 2.57. On to `COc1nn(C)cc1C(=O)N(C1CC1)C(C)c1ccc(Cl)cc1Cl` (stereo not drawn) [Compound 264], for which, under setting [2], the LogP is 2.83.

`COc1nn(C)cc1C(=O)N(Cc1c(Cl)cc(Cl)cc1Cl)C1CC1` [Compound 255]: the LogP under setting [2] is reported as 2.97. Consider `Cn1cc(C(=O)N(Cc2ccc(C(F)(F)F)cc2)C2CC2)c(I)n1` [Compound 262], for which the LogP under setting [2] was 2.92. Regarding `Cc1cc(C(=O)N(Cc2ccc(C(F)(F)F)cc2)C2CC2)c(C(F)(F)F)o1` [Compound 16], the LogP under setting [1] was 4.18. On to `Cc1nc(C(F)F)c(C(=O)N(Cc2ccc(Cl)cc2Cl)C2CC2)s1` [Compound 169], for which the LogP under setting [2] worked out at 3.74. In the case of `CCOc1nn(C)cc1C(=O)N(Cc1ccc(C(F)(F)F)cc1)C1CC1` [Compound 261], under setting [2], the LogP was 2.92.

Under setting [2], `Cn1cnc(C(=O)N(Cc2c(Cl)cc(Cl)cc2Cl)C2CC2)c1` [Compound 503] had a LogP of 2.40. In turn, `Cc1nn(C)c(F)c1C(=O)N(C1CC1)C(C)c1ccc(Cl)cc1Cl` (stereo not drawn) [Compound 263] registered a LogP under setting [2] of 3.19. Under setting [2], `COc1nn(C)cc1C(=O)N(Cc1ccc(Cl)cc1Cl)C1CC1` [Compound 251] gave a LogP of 2.81.

As for `CCOc1nn(C)cc1C(=O)N(Cc1c(Cl)cc(Cl)cc1Cl)C1CC1` [Compound 257], under setting [2], the LogP is listed as 3.35.

Under setting [1], `O=C(c1sccc1I)N(Cc1ccc(C(F)(F)F)cc1)C1CC1` [Compound 60] came in with a LogP of 4.04. The same measure, in the same setting: the same measure for `Cc1cc(C(=O)N(Cc2ccc(Cl)cc2Cl)C2CC2)c(C(F)(F)F)o1` [Compound 12]: 4.6. `COc1nn(C)cc1C(=O)N(Cc1ccc(C(F)(F)F)cc1)C1CC1` [Compound 259]: the LogP under setting [2] worked out at 2.61.

In the case of `Cc1nn(C)c(F)c1C(=O)N(Cc1cccc(Br)c1)C1CC1` [Compound 412], the LogP under setting [2] is listed as 2.66. On to `Cc1nc(C(F)F)c(C(=O)N(C2CC2)C(C#N)c2c(Cl)cccc2Cl)s1` (stereo not drawn) [Compound 213], for which, under setting [2], the LogP is 3.14.

Values taken from patent US8088927B2, “Fungicide N-cycloalkyl-benzyl-amide derivatives” (Bayer Cropscience AG, priority 2006, dated 2012).
